Measurements taken from US20240228489A1, “POSITIVE ALLOSTERIC MODULATORS OF THE MUSCARINIC ACETYLCHOLINE RECEPTOR M1” (Vanderbilt University, priority 2021, published 2024).

What was measured:
human mAChR M1 [1] = target: T1, human mAChR M1 (Homo sapiens, UniProt P11229); assay: mAChR M1 cell-based functional assay (calcium mobilization), PAM mode: increase in the EC20 acetylcholine response
T1 sequence (P11229 1-460): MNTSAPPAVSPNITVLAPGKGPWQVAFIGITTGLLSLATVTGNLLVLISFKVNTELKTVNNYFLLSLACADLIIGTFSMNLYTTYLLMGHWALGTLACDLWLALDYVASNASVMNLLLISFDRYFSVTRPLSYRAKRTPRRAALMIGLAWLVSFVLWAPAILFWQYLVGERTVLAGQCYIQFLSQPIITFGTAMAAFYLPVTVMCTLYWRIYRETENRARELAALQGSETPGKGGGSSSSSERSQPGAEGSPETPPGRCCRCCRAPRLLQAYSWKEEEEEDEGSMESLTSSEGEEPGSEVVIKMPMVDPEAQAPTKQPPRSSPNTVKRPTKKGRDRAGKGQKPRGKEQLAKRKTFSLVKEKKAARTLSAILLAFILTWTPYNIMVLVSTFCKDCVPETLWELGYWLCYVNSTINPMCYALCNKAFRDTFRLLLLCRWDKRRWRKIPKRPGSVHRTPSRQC
Source text: (§1) Chinese hamster ovary (CHO-K1) cells stably expressing rat (r)M1 were purchased from the American Type Culture Collection and cultured according to their indicated protocol. CHO cells stably expressing human (h)M2, hM3, and hM5 were described previously (Levey, et al., 1991); hM1 and hM4 cDNAs were purchased from Missouri S&T cDNA Resource; rM4 cDNA was provided by T. I. Bonner (National Institutes of Health, Bethesda, MD). rM2 and rM3 were cloned from a rat brain cDNA library and sequence verified. hM1, rM2, rM3, hM4, and rM4 cDNAs were used to stably transfect CHO-K1 cells purchased from the American Type Culture Collection using Lipofectamine2000. To make stable rM2, hM2, rM3, hM4, and rM4 cell lines for use in calcium mobilization assays, these cells also were stably transfected with a chimeric G-protein (Gqi5) (provided by B. R. Conklin, University of California, San Francisco) using Lipofectamine 2000. rM1, hM1, rM3, hM3, rM5, and hM5 cells were grown in Ham's F-12 medium containing 10% heat-inactivated fetal bovine serum (FBS), 20 mM HEPES, and 50 μg/mL G418 sulfate. rM2-Gqi5, hM2-Gqi5, and hM4-Gqi5 cells were grown in the same medium also containing 500 μg/mL Hygromycin B. Stable rM4-Gqi5 cells were grown in DMEM containing 10% heat-inactivated FBS, 20 mM HEPES, 400 μg/mL G418 sulfate, and 500 μg/mL Hygromycin B.
(§2) For high throughput measurement of agonist-evoked increases in intracellular calcium, CHO-K1 cells stably expressing muscarinic receptors were plated in growth medium lacking G418 and hygromycin at 15,000 cells/20 μL/well in Greiner 384-well black-walled, tissue culture (TC)-treated, clear-bottom plates (VWR). Cells were incubated overnight at 37° C. and 5% C02. The next day, cells were washed using an ELX 405 (BioTek) with four washes (80 μL) of assay buffer then aspirated to 20 μL. Next, 20 μL of 16 μM Fluo-4/acetoxymethyl ester (Invitrogen, Carlsbad, CA) prepared as a 2.3 mM stock in DMSO and mixed in a 1:1 ratio with 10% (w/v) Pluronic F-127 and diluted in assay buffer was added to the wells and the cell plates were incubated for 50 min at 37° C. and 5% C02. Dye was removed by washing with the ELX 405 (four 80 μL washes of assay buffer) then aspirated to 20 μL. Compound master plates were formatted in an 11 point CRC format (1:3 dilutions) in 100% DMSO with a starting concentration of 10 mM using the BRAVO liquid handler (Agilent). Test compound CRCs were then transferred to daughter plates (240 nL) using the Echo acoustic plate reformatter (Labcyte, Sunnyvale, CA) and then diluted into assay buffer (40 μL) to a 2× stock using a Thermo Fisher Combi (Thermo Fisher Scientific, Waltham, MA).
Calcium flux was measured using the Functional Drug Screening System (FDSS) 6000 (Hamamatsu Corporation, Tokyo, Japan) as an increase in the fluorescent static ratio. Compounds were applied to cells (20 μL, 2×) using the automated system of the FDSS 6000 at 4 s into the 300 s protocol and the data were collected at 1 Hz. At 144 s into the 300 s protocol, 10 μL of an EC20 concentration of the muscarinic receptor agonist acetylcholine was added (5×), followed by the addition of 12 μL of an EC80 concentration of acetylcholine at the 230 s time point (5×). Agonist activity was analyzed as a concentration-dependent increase in calcium mobilization upon compound addition. Emax values for agonist activity are expressed relative to the maximum for acetylcholine. Positive allosteric modulator activity was analyzed as a concentration-dependent increase in the EC20 acetylcholine response. Antagonist activity was analyzed as a concentration-dependent decrease in the EC80 acetylcholine response. Concentration-response curves were generated using a four-parameter logistical equation in XLfit curve fitting software (IDBS, Bridgewater, NJ) for Excel (Microsoft, Redmond, WA) or Prism (GraphPad Software, Inc., San Diego, CA). […]

human mAChR M1 [2] = target: T1, human mAChR M1; assay: mAChR M1 cell-based functional assay (calcium mobilization), agonist mode: compound alone, Emax relative to acetylcholine maximum; conditions: for EC50 / Agonist Activity Human M1 EC50: human mAChR M1; for Emax: relative to the maximum for acetylcholine
Source text: as §1, §2
Calcium flux was measured using the Functional Drug Screening System (FDSS) 6000 (Hamamatsu Corporation, Tokyo, Japan) as an increase in the fluorescent static ratio. Compounds were applied to cells (20 μL, 2×) using the automated system of the FDSS 6000 at 4 s into the 300 s protocol and the data were collected at 1 Hz. At 144 s into the 300 s protocol, 10 μL of an EC20 concentration of the muscarinic receptor agonist acetylcholine was added (5×), followed by the addition of 12 μL of an EC80 concentration of acetylcholine at the 230 s time point (5×). Agonist activity was analyzed as a concentration-dependent increase in calcium mobilization upon compound addition. Emax values for agonist activity are expressed relative to the maximum for acetylcholine. Positive allosteric modulator activity was analyzed as a concentration-dependent increase in the EC20 acetylcholine response. Antagonist activity was analyzed as a concentration-dependent decrease in the EC80 acetylcholine response. Concentration-response curves were generated using a four-parameter logistical equation in XLfit curve fitting software (IDBS, Bridgewater, NJ) for Excel (Microsoft, Redmond, WA) or Prism (GraphPad Software, Inc., San Diego, CA).

Compound | EC50 (human mAChR M1 [1]) | Emax (human mAChR M1 [1]) | EC50 (human mAChR M1 [2]) | Emax (human mAChR M1 [2]) | Agonist Activity Human M1 EC50 (human mAChR M1 [2])
[2H]C1([2H])c2ncccc2C(=O)N1Cc1c(C)cc(-c2cccc3nn(C)cc23)cc1F (single isomer, unassigned) [Compound 155, 6-(2-Fluoro-6-methyl-4-(2-methyl-2H-indazol-4-yl)benzyl)-6,7-dihydro-5H-pyrrolo[3,4-b]pyridin-5-one-7,7-d2] | 2480 nM | 82% | 8250 nM | 34% | –
[2H]C1([2H])c2ncccc2C(=O)N1Cc1c(C)cc(-c2cccc3nn(C([2H])([2H])[2H])cc23)cc1F (single isomer, unassigned) [Compound 156, 6-(2-Fluoro-6-methyl-4-(2-(methyl-d3)-2H-indazol-4-yl)benzyl)-6,7-dihydro-5H-pyrrolo[3,4-b]pyridin-5-one-7,7-d2] | 194 nM | 85% | 8160 nM | 33% | –
[2H]C1([2H])c2ncccc2C(=O)N1Cc1c(F)cc(-c2cccc3nn(C)cc23)cc1F [Compound 1, 6-(2,6-difluoro-4-(2-methyl-2H-indazol-4-yl)benzyl)-6,7-dihydro-5H-pyrrolo[3,4-b]pyridin-5-one-7,7-d2] | 538 nM | 84% | – | 8% | Inactive
[2H]C1([2H])c2ncccc2C(=O)N1Cc1c(F)cc(-c2ccnc3nn(C)cc23)cc1F [Compound 2, 6-(2,6-difluoro-4-(2-methyl-2H-pyrazolo[3,4-b]pyridin-4-yl)benzyl)-6,7-dihydro-5H-pyrrolo[3,4-b]pyridin-5-one-7,7-d2] | 980 nM | 57% | 7700 nM | 34% | –
[2H]C1([2H])c2ncccc2C(=O)N1Cc1c(F)cc(-c2cnc3nn(C)cc3c2)cc1F [Compound 3, 6-(2,6-difluoro-4-(2-methyl-2H-pyrazolo[3,4-b]pyridin-5-yl)benzyl)-6,7-dihydro-5H-pyrrolo[3,4-b]pyridin-5-one-7,7-d2] | 900 nM | 56% | 6920 nM | 31% | –
[2H]C1([2H])c2ncccc2C(=O)N1Cc1c(F)cc(-c2cc3cn(C)nc3cc2F)cc1F [Compound 4, 6-(2,6-difluoro-4-(6-fluoro-2-methyl-2H-indazol-5-yl)benzyl)-6,7-dihydro-5H-pyrrolo[3,4-b]pyridin-5-one-7,7-d2] | 1060 nM | 48% | – | 2% | Inactive
[2H]C1([2H])c2ncccc2C(=O)N1Cc1c(F)cc(-c2ccn3ccnc3c2)cc1F [Compound 5, 6-(2,6-difluoro-4-(imidazo[1,2-a]pyridin-7-yl)benzyl)-6,7-dihydro-5H-pyrrolo[3,4-b]pyridin-5-one-7,7-d2] | 977 nM | 40% | – | 2% | Inactive
[2H]C1([2H])c2ncccc2C(=O)N1Cc1c(F)cc(-c2cc3cn(C)nc3cc2C)cc1F [Compound 6, 6-(4-(2,6-dimethyl-2H-indazol-5-yl)-2,6-difluorobenzyl)-6,7-dihydro-5H-pyrrolo[3,4-b]pyridin-5-one-7,7-d2] | 4090 nM | 48% | – | 7% | Inactive
[2H]C1([2H])c2ncccc2C(=O)N1Cc1c(F)cc(-c2cc(F)c3nn(C)cc3c2)cc1F [Compound 7, 6-(2,6-difluoro-4-(7-fluoro-2-methyl-2H-indazol-5-yl)benzyl)-6,7-dihydro-5H-pyrrolo[3,4-b]pyridin-5-one-7,7-d2] | 952 nM | 53% | – | 4% | Inactive
[2H]C1([2H])c2ncccc2C(=O)N1Cc1c(F)cc(-c2ccc3nn(C)cc3c2)cc1F [Compound 8, 6-(2,6-difluoro-4-(2-methyl-2H-indazol-5-yl)benzyl)-6,7-dihydro-5H-pyrrolo[3,4-b]pyridin-5-one-7,7-d^2] | 639 nM | 62% | – | 4% | Inactive
[2H]C1([2H])c2ncccc2C(=O)N1Cc1ccc(-c2ccc3nn(C)cc3c2)cc1F [Compound 9, 6-(2-fluoro-4-(2-methyl-2H-indazol-5-yl)benzyl)-6,7-dihydro-5H-pyrrolo[3,4-b]pyridin-5-one-7,7-d2] | 686 nM | 71% | – | 6% | Inactive
[2H]C1([2H])c2ncccc2C(=O)N1Cc1ccc(-c2ccc3c(cnn3C)c2)cc1F [Compound 10, 6-(2-fluoro-4-(1-methyl-1H-indazol-5-yl)benzyl)-6,7-dihydro-5H-pyrrolo[3,4-b]pyridin-5-one-7,7-d2] | 1460 nM | 62% | – | 4% | Inactive
[2H]C1([2H])c2ncccc2C(=O)N1Cc1ccc(-c2cccc3nn(C)cc23)cc1 [Compound 11, 6-(4-(2-methyl-2H-indazol-4-yl)benzyl)-6,7-dihydro-5H-pyrrolo[3,4-b]pyridin-5-one-7,7-d2] | 1300 nM | 77% | – | 6% | Inactive
[2H]C1([2H])c2ncccc2C(=O)N1Cc1ccc(-c2ccc3nn(C)cc3c2)cc1 [Compound 12, 6-(4-(2-methyl-2H-indazol-5-yl)benzyl)-6,7-dihydro-5H-pyrrolo[3,4-b]pyridin-5-one-7,7-d2] | 1230 nM | 62% | – | 2% | Inactive
[2H]C1([2H])c2ncccc2C(=O)N1Cc1ccc(-c2cnc3nn(C)cc3c2)cc1 [Compound 13, 6-(4-(2-methyl-2H-pyrazolo[3,4-b]pyridin-5-yl)benzyl)-6,7-dihydro-5H-pyrrolo[3,4-b]pyridin-5-one-7,7-d2] | 5190 nM | 75% | – | 3% | Inactive
